Measurements: US9993492B2, “Lysophospholipids and lysophospholipid analogues against honeybee brood diseases” (University of Graz, priority 2013, dated 2018)
Like-named read-outs stand apart in the source and are kept apart here.

What was measured:
Paenibacillus larvae = test: Antimicrobial assay in BHI liquid medium, vegetative forms of Paenibacillus larvae (MIC); format: cell-based; conditions: for MIC (ppm) / MIC: vegetative forms of Pl, liquid medium; for inhibitory / antibacterial activity against Pl (in words): in vitro
Experimental: For the evaluation of certain fatty acids and phospholipids, overnight cultures of vegetative forms of Pl were used (for results see Table 1.1).
(§1) As test organisms, several different strains of Paenibacillus larvae were used.
(§2) Overnight cultures of the vegetative forms of bacteria were prepared in BHI (brain heart infusion) liquid medium.
From these overnight cultures, an inoculum of 50 μl is added to 1.0 ml of BHI liquid medium to perform the bacterial test in liquid medium. The compound 1-O-oleoyl-sn-glycero-3-phosphocholine (oleoyl-LPC) together with a positive control was then added at concentrations of 2, 5 and 10 ppm and the test tubes were incubated for 24 h at 34.5° C. Then, the extinction of the solution was measured photometrically.

Melissococcus plutonius = test: Antimicrobial assay in liquid Basal Medium against Melissococcus plutonius (MIC); format: cell-based; conditions: for MIC (ppm) / MIC: M. pl. in BM liquid medium, OE at 600 nm after 5 days; for inhibitory / antibacterial activity against M. pl. (in words): in vitro
Experimental: M. pl. was cultured in liquid Basal Medium (BM) for 4 days at 35° C. and from here serial dilutions were carried out to estimate CFU/ml by plating onto BM agar plates. 5 days later CFU were count and concentration was estimated to be 3.46*10^6 CFU/ml. For the antimicrobial assay, an inoculum of 50 μl of the liquid culture is added to 1 mL of BM liquid medium. A set of different substances were tested in different concentrations (2, 5 and 10 ppm) in order to find out their inhibitory effect against M. pl growth. For substances tested, concentration applied and results see table 1.2. Three replicates per substance were included in the experiment. 5 days after the experiment was started OE (optical extinction) was measured at 600 nm.

honeybee larvae = format: in vivo; conditions: for toxicity to honeybee larvae (footnote b): in vivo; for Ndead larvae total: days 1-7
Experimental: First instar larvae were transferred into plastic queen cups and fed the following diets: On the first day 10 μL of diet containing 6% glucose, 6% fructose, 1% yeast extract and 50% royal jelly were fed. Test substances (1-O-oleoyl-sn-glycero-3-phosphocholine (oleoyl-LPC), stearic acid, lysophosphatidylinositol and linoleic acid) were added to the first diet in amounts of 0.5 to 10 μg/larvae. For infection with spores of Paenibacillus larvae, larvae were grafted into 5 μL of diet containing test substances and subsequently 5 μL of diet with about 50 added Pl spores were given. Larvae were not fed on the second day to assure the consumption of the given diet. On the third day 20 μL of diet containing 7.5% glucose, 7.5% fructose, 1.5% yeast extract and 50% royal jelly were fed. Amounts of 30, 40 and 60 μL of diet composed of 9% glucose, 9% fructose, 2% yeast extract and 50% royal jelly were fed on the 4th, 5th and 6th day (method modified after Aupinel et al. [Aupinel et al. 2005. Bull Insectol 58:107-111]. Larvae were incubated at 34.5° C. and 95% relative humidity which was reduced to 80% on day 7. The mortality was checked daily for the first 7 days and when individuals emerged from queen cups at day 18 after the transfer into cups. To reduce the time for sporulation of Pl in the lab for security reasons, infection tests with Pl spores were stopped at day 7 with some experiments extend to day 12.
Larvae were fed according to a slightly modified rearing method of Aupinel et al., (2005). Larvae were fed for 6 days with different amounts of diets which always contained 50% of an aqueous solution (A, B, C) and 50% royal jelly (w/w). The solutions consisted of yeast extract (A=2%, B=3%, C=4%), glucose and fructose (A=12%, B=15%, C=18% each). 50 g portions of royal jelly (purchased from the Styrian school of beekeepers) were freeze stored at −20° C. Once a day all components of the needed diet were mixed freshly, warmed and fed to the larvae with a micro-pipette. On day 1 and 2 each larva was fed with 10 μL of diet A, on day three with 20 μL of diet B, on day four (30 μL), five (40 μL) and six (50 μL) with diet C. This way, each larva was supported with a total amount of 160 μL of food. The test compounds (see Table 4) were added each at the respective concentration on day 1, i.e. stearic acid (10 μg/larva), lysophosphatidylinositol (5 μg/larva), linoleic acid (12 μg/larva) and oleyol-LPC (10 μg/larva). Each larva was checked for its state of health under the binocular before feeding. A larva was defined healthy when movements of spiracles could be observed and it was shiny and plump. Cups with dead larvae were removed from the plate to prevent infections. To avoid microbial contamination, feeding took place under a laminar flow. Larvae were incubated at 34.5° C. and 90% RH. The mortality rates of the larvae are given below in table 4.1.

[1] = system: spores of Paenibacillus larvae; test: Spore assay in BHI liquid medium with plating for CFU; format: cell-based; conditions: lowest investigated dose (5 ppm); 114.6±28.4 spores per vial; 4 and 6 days
Experimental: A stock solution containing spores at a known concentration is used to inoculate c. 100 spores/mL medium. This assay is carried out in 20 mL cultivation tubes containing 1.0 mL of BHI (brain heart infusion) liquid medium. To this medium containing c. […] spores, test compounds are added at different concentrations (e.g., 2, 5 and 10 ppm), together with positive control (penicillin G at 5 ppm) and blank control.
To verify inoculation with c. 100 spores/mL, tubes containing BHI+spores are plated out immediately on agar plates to assess the number of colony forming units (CFU) after 6 days of incubation at 34.5° C.
For the control of viability of the spores, the turbidity (due to germination of spores and formation of vegetative forms) of tubes containing BHI+spores is evaluated on day 4.
For the test probes, bacterial growth is evaluated on day 4 and 6. For those tubes which are negative for bacterial growth, the whole medium (c. 1 mL) is plated onto agar plates and evaluated for CFUs after 2 and 6 days of incubation. CFUs visible after two days result from vegetative forms, while CFUs appearing after […] stem from spores.
The results of these tests allow identifying whether the tested compounds have an effect on spore germination in liquid medium and the viability of the spores as assessed by their germination on agar plates. […]

[2] = system: Paenibacillus larvae (Eric II test strain); test: Inhibition zone test on Columbia agar; format: cell-based; conditions: amount 30 μg; 24 h, 34.5° C.
Experimental: as §1, §2
For the inhibition zone test, 500 μL of overnight culture were added to 15-20 mL of Columbia agar, mixed and poured onto a petri dish. After the agar solidified, either punched wholes are filled with different amounts of test compounds or test compounds are pipetted on paper discs (5 mm Ø). The plate is then incubated for 24 h (34.5° C.) and zones of inhibition are measured and given in mm. Lactic acid and penicillin G were used as positive controls.
E II—Eric II (test strain of Pl)

[3] = Paenibacillus larvae, 24 h, read-out: MIC (ppm)
[4] = Paenibacillus larvae, read-out: MIC
[5] = Melissococcus plutonius, 120 h, read-out: MIC
[6] = Melissococcus plutonius, 120 h, read-out: MIC (ppm)
[7] = linoleic acid 12 μg/larva added on day 1, Nlarvae 48
[8] = stearic acid 10 μg/larva added on day 1, Nlarvae 96
[9] = LPI 5 μg/larva added on day 1, Nlarvae 96

Compound	MIC (Paenibacillus larvae; [3]) [µg/mL]	MIC (Paenibacillus larvae; [4]) [µM]	MIC (Melissococcus plutonius; [5]) [µM]	MIC (Melissococcus plutonius; [6]) [µg/mL]	inhibitory / antibacterial activity against Pl (in words) (Paenibacillus larvae)	inhibitory / antibacterial activity against M. pl. (in words) (Melissococcus plutonius)	further results
lysophosphatidylcholine							MIC (ppm) (Paenibacillus larvae): 2-5 ppm; MIC (ppm) (Melissococcus plutonius): 2-5 ppm; larval mortality compared with control group (honeybee larvae; single dose fed on day one, up to 1-2% of fresh body weight of larvae younger than one day, assessed on day 7): no higher mortality than found in the control group
CCCCC/C=C\C/C=C\CCCCCCCC(=O)O [linoleic acid]	0.5	1.8	3.6	1			toxicity to honeybee larvae (footnote b) (honeybee larvae): ^btoxic to honeybee larvae; Ndead larvae day 1 (honeybee larvae; [7]): 0; Ndead larvae day 2 (honeybee larvae; [7]): 18; Ndead larvae day 3 (honeybee larvae; [7]): 2; Ndead larvae day 4 (honeybee larvae; [7]): 3; Ndead larvae day 5 (honeybee larvae; [7]): 1; Ndead larvae day 6 (honeybee larvae; [7]): 1; Ndead larvae day 7 (honeybee larvae; [7]): 1; Ndead larvae total (honeybee larvae; [7]): 26
CCCCCCCCCCCCCCCCCC(=O)O [stearic acid]	> 20	> 70	> 35	> 10			Ndead larvae day 1 (honeybee larvae; [8]): 0; Ndead larvae day 2 (honeybee larvae; [8]): 0; Ndead larvae day 3 (honeybee larvae; [8]): 1; Ndead larvae day 4 (honeybee larvae; [8]): 0; Ndead larvae day 5 (honeybee larvae; [8]): 1; Ndead larvae day 6 (honeybee larvae; [8]): 3; Ndead larvae day 7 (honeybee larvae; [8]): 1; Ndead larvae total (honeybee larvae; [8]): 6
CCCCCCCCCCCCCCCCOP(=O)([O-])OCC[N+](C)(C)C [miltefosine, hexadecylphosphocholine]	2 to 5	7.4	4.9	2	good in vitro Pl and M. pl. inhibitory activity	good in vitro Pl and M. pl. inhibitory activity	killing of vegetative forms upon germination of spores [1]: all vegetative forms are killed
CC(O)C(=O)O (stereo not shown) [LA (C+), lactic acid]							Inhibition zone (mm) [2]: 5 mm
L-α-lysophosphatidylinositol					did not show significant inhibitory activity	did not show significant inhibitory activity	MIC (ppm) (Paenibacillus larvae): >50 ppm; MIC (Paenibacillus larvae; read-out: MIC): >80 µM; MIC (ppm) (Melissococcus plutonius): >10 ppm; MIC (Melissococcus plutonius; read-out: MIC): >15 µM; Ndead larvae day 1 (honeybee larvae; [9]): 0; Ndead larvae day 2 (honeybee larvae; [9]): 0; Ndead larvae day 3 (honeybee larvae; [9]): 0; Ndead larvae day 4 (honeybee larvae; [9]): 0; Ndead larvae day 5 (honeybee larvae; [9]): 1; Ndead larvae day 6 (honeybee larvae; [9]): 1; Ndead larvae day 7 (honeybee larvae; [9]): 2; Ndead larvae total (honeybee larvae; [9]): 4
CCCCCCCC/C=C\CCCCCCCC(=O)O [oleic acid]	1	3.5	3.5	1			toxicity to honeybee larvae (footnote b) (honeybee larvae): ^btoxic to honeybee larvae
CCCCCCCCCCCCCCCCCCOP(=O)([O-])OC1CC[N+](C)(C)CC1 [perifosine, 1,1-dimethylpiperidinium-4-yl octadecyl phosphate]	2	4.3	4.3	2	good in vitro Pl and M. pl. inhibitory activity	good in vitro Pl and M. pl. inhibitory activity	
CCCCCCCCCCCCCCCCCC(=O)OC[C@@H](O)COP(=O)([O-])OCC[N+](C)(C)C [1-O-stearoyl-sn-glycero-3-phosphocholine]	5	> 9.5	> 5.7	3	good in vitro Pl inhibitory activity		
CCCCCCCCCCCCCCCC(=O)O [palmitic acid]	> 20	> 78	> 40	> 15			
